Test results reported in ChEMBL document CHEMBL3612043, “Synthesis and biological evaluation of 6-substituted indolizinoquinolinediones as catalytic DNA topoisomerase I inhibitors” (Eur J Med Chem, 2015).
Active and inactive are the calls of the source. The rule behind the calls is not given here.

Tests used:
[1] = molecular target: T1, DNA topoisomerase 1 (Homo sapiens) (UniProt P11387); test: Induction of recombinant Top1 (unknown origin) assessed as 3'-[32P]-labeled 117-bp DNA oligonucleotide cleavage after 20 mins
T1 sequence (whole entry): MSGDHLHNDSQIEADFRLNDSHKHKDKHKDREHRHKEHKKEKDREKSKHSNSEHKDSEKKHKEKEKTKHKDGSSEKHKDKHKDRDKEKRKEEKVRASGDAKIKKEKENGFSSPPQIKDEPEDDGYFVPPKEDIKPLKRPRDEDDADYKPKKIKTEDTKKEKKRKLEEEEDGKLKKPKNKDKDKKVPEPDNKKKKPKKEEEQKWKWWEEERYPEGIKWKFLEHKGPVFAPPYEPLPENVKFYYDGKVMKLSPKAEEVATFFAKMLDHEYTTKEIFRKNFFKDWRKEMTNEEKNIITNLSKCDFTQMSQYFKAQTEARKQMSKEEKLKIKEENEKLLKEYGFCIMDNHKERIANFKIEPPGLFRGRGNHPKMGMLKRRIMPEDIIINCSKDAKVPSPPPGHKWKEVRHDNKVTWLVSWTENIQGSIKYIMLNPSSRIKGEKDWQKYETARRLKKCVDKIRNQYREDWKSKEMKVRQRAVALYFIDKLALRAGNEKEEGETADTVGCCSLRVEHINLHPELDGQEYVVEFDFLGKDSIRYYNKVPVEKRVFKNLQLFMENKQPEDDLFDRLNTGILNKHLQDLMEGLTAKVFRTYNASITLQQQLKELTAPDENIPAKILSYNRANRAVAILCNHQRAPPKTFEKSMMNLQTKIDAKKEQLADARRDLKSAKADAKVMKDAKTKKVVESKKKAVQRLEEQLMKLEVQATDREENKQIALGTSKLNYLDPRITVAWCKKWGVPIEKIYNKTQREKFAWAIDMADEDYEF

Bos taurus = species: Bos taurus; test: Inhibition of calf thymus Top1-mediated pBR322 DNA relaxation at 25 uM preincubated for 15 mins measured after 30 mins by ethidium bromide staining relative to camptothecin
[2] = molecular target: T1, DNA topoisomerase 1 (Homo sapiens); test: Inhibition of Top1 (unknown origin)-mediated unwinding of relaxed pBR322 DNA preincubated for 10 mins measured after 30 mins by UV transilluminator analysis
CA46 = test: Cytotoxicity against human CA46 cells after 48 hrs by MTT assay; assay type: functional, cell-based; details: CA46, 48 h
HL-60 = test: cells; details: Homo sapiens, HL-60, 48 h
Description: Cytotoxicity against human HL60 cells after 48 hrs by MTT assay

HeLa = test: cells; details: Homo sapiens, 48 h
Description: Cytotoxicity against human HeLa cells after 48 hrs by MTT assay

A549 = test: cells; details: Homo sapiens, A549, 48 h
Description: Cytotoxicity against human A549 cells after 48 hrs by MTT assay

[3] = Inhibition of calf thymus Top1-mediated pBR322 DNA relaxation preincubated for 15 mins measured after 30 mins by ethidium bromide staining; set-up: species or system Bos taurus

SMILES	Activity [1]	Top1 relaxation inhibition relative to camptothecin (%) (Bos taurus)	inhibition [2]	IC50 (CA46) [nM]	IC50 (HL-60) [nM]	IC50 (HeLa) [nM]	IC50 (A549) [nM]	IC50 [3] [nM]
CCN(CC)CCCNC(=O)c1c2c(n3ccccc13)C(=O)c1ncccc1C2=O	inactive	> 120	Active	1200	1400	1300	1000	–
O=C1c2cccnc2C(=O)c2c1c(C(=O)NCCc1ccccc1)c1ccccn21	inactive	< 40	–	7900	14000	17000	19000	–
O=C1c2cccnc2C(=O)c2c1c(C(=O)OCCCN1CCCC1)c1ccccn21	inactive	> 120	Active	1100	26	940	140	–
O=C1c2cccnc2C(=O)c2c1c(C(=O)NCCN1CCOCC1)c1ccccn21	inactive	> 120	Active	3400	1200	1600	890	–
O=C1c2cccnc2C(=O)c2c1c(C(=O)OCCCBr)c1ccccn21	inactive	–	–	–	–	–	–	–
CN(C)CCNC(=O)c1c2c(n3ccccc13)C(=O)c1ncccc1C2=O	inactive	> 120	Active	5900	1200	920	610	–
O=C1c2cccnc2C(=O)c2c1c(C(=O)OCCN1CCOCC1)c1ccccn21	inactive	> 120	inactive	5800	34	10000	< 10	–
O=C1c2cccnc2C(=O)c2c1c(C(=O)NCCCN1CCOCC1)c1ccccn21	inactive	> 120	Active	1100	1300	5900	4200	–
CN1CCN(CCCNC(=O)c2c3c(n4ccccc24)C(=O)c2ncccc2C3=O)CC1	inactive	> 120	Active	3800	2200	8900	5500	–
O=C1c2cccnc2C(=O)c2c1c(C(=O)NCCCN1CCCC1)c1ccccn21	inactive	> 120	Active	2700	1900	1800	1200	–
CCN(CC)C(=O)c1c2c(n3ccccc13)C(=O)c1ncccc1C2=O	inactive	< 40	–	15000	14000	46000	64000	–
O=C1c2cccnc2C(=O)c2c1c(C(=O)N1CCCCC1)c1ccccn21	inactive	< 40	–	13000	52000	19000	76000	–
O=C1c2cccnc2C(=O)c2c1c(C(=O)NCCn1ccnc1)c1ccccn21	inactive	> 120	inactive	2900	2300	5800	2300	–
O=C1c2cccnc2C(=O)c2c1c(C(=O)N1CCOCC1)c1ccccn21	inactive	< 40	–	13000	22000	> 100000	77000	–
O=C1c2cccnc2C(=O)c2c1c(C(=O)NCCN1CCCCC1)c1ccccn21	inactive	–	–	–	–	–	–	–
O=C1c2cccnc2C(=O)c2c1c(C(=O)OCCc1ccccn1)c1ccccn21	inactive	81	inactive	2900	110	1100	7800	–
O=C1c2cccnc2C(=O)c2c1c(C(=O)OCCN1CCCC1)c1ccccn21	inactive	–	–	–	–	–	–	–
O=C1c2cccnc2C(=O)c2c1c(C(=O)OCCCN1CCOCC1)c1ccccn21	inactive	> 120	Active	1400	64	2200	1900	–
O=C1c2cccnc2C(=O)c2c1c(C(=O)OCCN1CCCCC1)c1ccccn21	inactive	> 120	Active	3000	320	2200	520	–
O=C1c2cccnc2C(=O)c2c1c(C(=O)NCCN1CCCC1)c1ccccn21	inactive	> 120	Active	15000	1200	780	490	–
O=C1c2cccnc2C(=O)c2c1c(C(=O)NCCCc1ccccc1)c1ccccn21	inactive	40	–	14000	75000	29000	15000	–
CN(C)CCCNC(=O)c1c2c(n3ccccc13)C(=O)c1ncccc1C2=O	inactive	> 120	Active	1200	2300	960	370	–
CCNC(=O)c1c2c(n3ccccc13)C(=O)c1ncccc1C2=O	inactive	–	–	–	–	–	–	–
CN1CCN(CCNC(=O)c2c3c(n4ccccc24)C(=O)c2ncccc2C3=O)CC1	inactive	> 120	Active	1100	2800	1000	440	–
CCOC(=O)c1c2c(n3ccccc13)C(=O)c1ncccc1C2=O	inactive	81	inactive	3700	300	22000	1400	–
O=C1c2cccnc2C(=O)c2c1c(C(=O)NCCCN1CCCCC1)c1ccccn21	inactive	> 120	Active	1200	1300	1200	3300	–
O=C1c2cccnc2C(=O)c2c1c(C(=O)OCCBr)c1ccccn21	inactive	–	–	–	–	–	–	–
CN1CCN(C(=O)c2c3c(n4ccccc24)C(=O)c2ncccc2C3=O)CC1	inactive	40	–	2600	5700	62000	30000	–
CC[C@@]1(O)C(=O)OCc2c1cc1n(c2=O)Cc2cc3ccccc3nc2-1 [CAMPTOTHECIN]	inactive	81	–	520	15	14000	1600	25000
O=C1c2cccnc2C(=O)c2c1c(C(=O)OCCCN1CCCCC1)c1ccccn21	inactive	> 120	Active	900	25	480	1000	–
